Experimental data as given in paper PMC7602804 (Nutrients, 2020).
Entries after “also recorded” stand apart in the source; their conditions may differ. No end group written: not given here.

Key:
Caco-2 monolayer = assay: Passive permeability (Papp) of mannitol across Caco-2 monolayers, membrane integrity; format: in vitro ADME, human; conditions: D-[1-14C]-Mannitol 3.5 µM, 56.8 mCi/mmol, apical, with or without milk peptides; A-B; 2.5 h; HBSS + 10 mM HEPES; liquid scintillation counting; mean ± standard deviation of four or five inserts
Procedure: (§1) The Caco-2 cells used for transport studies were seeded in polyethylene terephthalate culture inserts, with a pore size of 0.4 μm and a growth area of 0.33 cm^2 at a density of approximately 25,000 cells/insert. The Caco-2 cells were grown for three weeks on the porous membrane before they were used for transepithelial transport. The integrity of the monolayers was confirmed by measuring the TEER using a Millicell ERS-2 volt ohmmeter. Only Caco-2 monolayers with TEER values above 400 Ω cm^2 were used for the transport analysis.
(§2) Following the TEER value measurement, the Caco-2 and PBEC monolayers were gently washed twice with phosphate-buffered saline, and the transport medium (Hanks’ Balanced Salt solution supplemented with 10 mM of HEPES) was added to the apical and basolateral compartments. […] Basolateral samples were mixed with Ultima Gold liquid scintillation fluid (Perkin Elmer) and counted in a Tri-Carb 2810 TR scintillation counter (Perkin Elmer). The apparent permeability coefficient (Papp, cm/s) was determined as Papp = (dQ/dt)/(AC0) where dQ/dt is the steady state flux (cpm/s), A is the surface area of the cell culture insert membrane and C0 is the initial concentration in the apical compartment (cpm/mL). […]

[1] = test system: PBEC monolayer (BBB model); assay: Passive permeability (Papp) of mannitol across PBEC monolayers, membrane integrity; format: in vitro ADME, porcine; conditions: D-[1-14C]-Mannitol 3.5 µM, 56.8 mCi/mmol, apical, with or without milk peptides; A-B; 2.5 h; HBSS + 10 mM HEPES; liquid scintillation counting; mean ± standard deviation of four or five inserts
Procedure: PBECs were grown until 70–80% confluency as described above and then passaged onto polyester culture inserts with a pore size of 0.4 μm and a growth area of 1.12 cm^2 (Costar, Corning, NY, USA) at a density of 1.1 × 10^5 cells/cm^2 in the PBEC growth medium. In the basolateral chamber, the medium consisted of 1 mL of PBEC growth medium and 0.5 mL of astrocyte conditioned medium. The medium was supplemented with differentiation factors: 550 nM of hydrocortisone, 250 μM of 8-(4-chlorophenylthio)adenosine-3′,5′-cyclic monophosphate (cAMP) and 17.5 μM of RO-201724 two days after seeding. The next day, the integrity of the PBEC monolayer was confirmed by measuring the TEER. […]
as §2

Caco-2 monolayers [2] = assay: Apical to basolateral transport of milk peptides across Caco-2 monolayers (LC-MS/MS of basolateral medium); format: in vitro ADME, human; conditions: Caco-2, 3 weeks on PET inserts 0.4 μm, TEER above 400 Ω cm^2; A-B; mix of 192 purified milk peptides 0.1 mg/mL apical; HBSS + 10 mM HEPES; 2.5 h; LC-MS/MS of basolateral medium; identified in two out of three experiments
Procedure: The human colorectal adenocarcinoma cell line, Caco-2, was obtained from DSMZ (Braunschweig, Germany). The cells were grown to 50–60% confluence in Dulbecco’s Modified Eagle Medium (DMEM) Glutamax cell culture medium, supplemented with 10% heat-inactivated fetal bovine serum, 100 units/mL of penicillin and 100 μg/mL of streptomycin (all from Invitrogen, Carlsbad, CA, USA) in a humidified 5% CO2/95% air atmosphere at 37 °C. The cells used in the experiments were between passages 30 and 40.
as §1
(§3) Following the TEER value measurement, the Caco-2 and PBEC monolayers were gently washed twice with phosphate-buffered saline, and the transport medium (Hanks’ Balanced Salt solution supplemented with 10 mM of HEPES) was added to the apical and basolateral compartments. The inserts were incubated for 15 min or 2.5 h with the purified milk peptides (0.1 mg/mL) or the synthetic PIGSENSEKTTMPLW peptide (2 µg/mL), after which medium from the apical and basolateral compartments were collected for liquid chromatography tandem mass spectrometry (LC-MS/MS) analysis. Inserts incubated with a medium without peptides served as the control in the transport experiments. Membrane integrity was validated by addition of D-[1-^14C]-Mannitol (3.5 µM, 56.8 mCi/mmol) (Perkin Elmer, Waltham, MA, USA) to the upper chamber of the culture inserts with or without milk peptides for 2.5 h. The passive permeability experiments were performed on four or five individual culture inserts. Basolateral samples were mixed with Ultima Gold liquid scintillation fluid (Perkin Elmer) and counted in a Tri-Carb 2810 TR scintillation counter (Perkin Elmer). The apparent permeability coefficient (Papp, cm/s) was determined as Papp = (dQ/dt)/(AC0) where dQ/dt is the steady state flux (cpm/s), A is the surface area of the cell culture insert membrane and C0 is the initial concentration in the apical compartment (cpm/mL).
LC-MS/MS analysis was performed on a TripleTOF 6600 mass spectrometer equipped with an Exigent nanoLC 415 system (AB Sciex, Les Ulis, France). All samples were micro-purified using 3 M Empore C18 discs packed in pipette tips. The lyophilized samples were dissolved in 0.1% formic acid, injected on a trap column (2 cm × 100 µm inner diameter) and separated on an analytical column packed in-house in a pulled emitter (15 cm × 75 µm inner diameter). All columns were packed with ReproSil-Pur C18-AQ 3 µm resin (courtesy of Dr. Marisch, Ammerbuch-Entringen, Germany). Peptides were eluted directly into the mass spectrometer with a linear gradient from 5 to 35% solvent B (0.1% formic acid in acetonitrile) for 20 min with a flowrate of 250 nL/min, followed after 10 min with 100% solvent B. Data files were converted to Mascot Generic Format using the Raw Converter (version 1.1.0.18) (http://fields.scripps.edu/rawconv/) or the AB Sciex MS Data Converter beta 1.1 (AB Sciex, Les Ulis, France). The generated peak lists were searched against the Bos taurus proteome (UniProt database, https://www.uniprot.org)) using an in-house Mascot search engine (Matrix Science, London, UK). The searches were made without specifying a protease and with oxidation (Met) and phosphorylation (ST) as variable modifications. Peptide tolerance was set to 10 ppm and MS/MS tolerance was set to 0.2 Da. […]

[3] = test system: porcine brain endothelial cell (PBEC) monolayers; assay: Apical to basolateral transport of milk peptides across porcine brain endothelial cell (PBEC) monolayers, blood-brain barrier model; format: in vitro ADME; conditions: primary PBEC on polyester inserts 0.4 μm, astrocyte conditioned medium, TEER higher than 800 Ω cm^2; A-B; mix of 192 milk peptides 0.1 mg/mL apical; HBSS + 10 mM HEPES; 2.5 h; LC-MS/MS; five independent studies; αS1 peptide 'or' its truncated peptides stated collectively
Procedure: Capillaries were isolated from the brain cortices of domestic pigs 5–6 months old as previously described. PBECs were cultured by plating the capillaries in T75 flasks coated with collagen IV (500 µg/mL) and fibronectin (100 µg/mL) in DMEM-F12 medium, supplemented with 10% plasma-derived serum (First Link, Wolverhampton, UK), heparin (15 U), 100 units/mL of penicillin and 100 µg/mL of streptomycin (PBEC growth medium), and cultured in an incubator with humidified 5% CO2/95% air at 37 °C. Puromycin (4 µg/mL) was added to the growth medium for the first three days to obtain a pure culture of PBECs.
Astrocyte conditioned medium was collected every third day from primary rat astrocytes, sterile filtered and frozen until use. Isolation of primary rat astrocytes and preparation of astrocyte conditioned media were carried out as described in [20].
PBECs were grown until 70–80% confluency as described above and then passaged onto polyester culture inserts with a pore size of 0.4 μm and a growth area of 1.12 cm^2 (Costar, Corning, NY, USA) at a density of 1.1 × 10^5 cells/cm^2 in the PBEC growth medium. In the basolateral chamber, the medium consisted of 1 mL of PBEC growth medium and 0.5 mL of astrocyte conditioned medium. The medium was supplemented with differentiation factors: 550 nM of hydrocortisone, 250 μM of 8-(4-chlorophenylthio)adenosine-3′,5′-cyclic monophosphate (cAMP) and 17.5 μM of RO-201724 two days after seeding. The next day, the integrity of the PBEC monolayer was confirmed by measuring the TEER. Only PBEC monolayers with TEER values higher than 800 Ω cm^2 were used for the transport analysis.
as §3
LC-MS/MS analysis was performed on a TripleTOF 6600 mass spectrometer equipped with an Exigent nanoLC 415 system (AB Sciex, Les Ulis, France). All samples were micro-purified using 3 M Empore C18 discs packed in pipette tips. The lyophilized samples were dissolved in 0.1% formic acid, injected on a trap column (2 cm × 100 µm inner diameter) and separated on an analytical column packed in-house in a pulled emitter (15 cm × 75 µm inner diameter). All columns were packed with ReproSil-Pur C18-AQ 3 µm resin (courtesy of Dr. Marisch, Ammerbuch-Entringen, Germany). […]

Caco-2 monolayers [4] = test system: Caco-2 monolayers; design: method as in PMID 20397193, PMID 23561097; conditions: Caco-2 monolayer; cited from earlier work
[5] = test system: angiotensin-converting enzyme (ACE); conditions: potential anti-hypertensive peptides; cited from earlier work
Description: The ACE-inhibitory ability is presumably mediated through the derived fragments TTMPLW and KTTMP [36, 37]. Thus, the transport of this peptide across physiological barriers could influence the regulation of arterial blood pressure. Furthermore, ACE is present in the brain and plays a key role in high salt induced sympatho-excitation, hypertension, neuroprotection, cognition and cerebr ...

[6] = Caco-2 monolayers in culture inserts; transport medium (Hanks' Balanced Salt solution supplemented with 10 mM of HEPES); basolateral medium analysed; conditions: human, up to 2.5 h
[7] = primary porcine brain endothelial cell (PBEC) monolayers in culture inserts; transport medium (Hanks' Balanced Salt solution supplemented with 10 mM of HEPES); basolateral medium analysed; conditions: up to 2.5 h
[8] = test system: pepsin from porcine gastric mucosa, then trypsin and chymotrypsin from a bovine pancreas and elastase; assay: purified milk peptide mix: pepsin in 0.15 M NaCl pH 2.5 (1:100 w/w), then trypsin, chymotrypsin (1:100 w/w) and elastase (1:500 w/w) in 50 mM ammonium bicarbonate pH 7.6; conditions: 37 °C, up to 60 min
[9] = test system: pepsin from porcine gastric mucosa, then trypsin and chymotrypsin from a bovine pancreas and elastase; assay: synthetic peptide: pepsin in 0.15 M NaCl pH 2.5 (1:100 w/w, 60 min), then trypsin, chymotrypsin (1:100 w/w) and elastase (1:500 w/w) in 50 mM ammonium bicarbonate pH 7.6; conditions: 37 °C, up to 270 min

Molecule: OC[C@@H](O)[C@@H](O)[C@H](O)[C@H](O)CO [D-[1-^14C]-Mannitol]
- Apparent permeability coefficient (Papp) of the Caco-2 monolayer (Caco-2 monolayer): 9.45 ± 2 × 10^−7 cm s^−1
- Papp for the BBB (PBEC monolayer) [1]: 1.09 ± 0.14 × 10^−6 cm s^−1

Molecule: EPVLGPVRGPFPIIV [EPVLGPVRGPFPIIV]
- Peptide identified in the basolateral chamber of Caco-2 monolayers (transported) (Caco-2 monolayers [2]): not transported across the Caco-2 monolayers
- Peptide identified in the basal compartment (brain side) of the PBEC BBB model (transported) [3]: identified in the basal compartment of the BBB model
- Crossing of in vitro intestinal barrier models in other studies (Caco-2 monolayers [4]): shown to cross over in vitro intestinal barrier models

Molecule: IGSENSEKTTMP [truncated derivative of the αS1-casein peptide …]
- Peptide identified in the basal compartment (brain side) of the PBEC BBB model (transported) [3]: identified in all experiments
- Inhibition of the activity of angiotensin-converting enzyme (ACE) [5]: can inhibit the activity of angiotensin-converting enzyme

Molecule: PIGSENSEKTTMPLW
- fragment found [6]: PIGSENSEKTTMP (Mox), 2.5 h; also recorded: PIGSENSEKTT, 2.5 h
- fragment found [7]: PIGSENSEKTTMP (Mox), 2.5 h; also recorded: PIGSENSEKTT, 2.5 h
- not cleaved [8]: peptide ion still observed after pepsin and pancreatic enzyme digestion
- not cleaved [9]: ion corresponding to the peptide observed even after 270 min of digestion
